Source: patent US20090318375A1, “Crystalline Azithromycin L-Malate Monohydrate and Pharmaceutical Composition Containing Same” (Hanmi Pharm Co., Ltd, priority 2003, published 2009)
Read-outs that look alike come from different tables or passages of the source. One block for each compound: values may come before it.

How the values were obtained:
[1] = Hygroscopicity of acid addition salts of azithromycin after storage; format: physicochemical; conditions: after 24 hours storage at 40° C. and 75% relative humidity
[2] = Moisture uptake of malate anhydrates exposed at 40° C. and 75% relative humidity; format: physicochemical; conditions: exposed at 40° C. and 75% relative humidity for 10 hours
[3] = Heat stability test (remaining active azithromycin by HPLC); format: physicochemical; conditions: 60° C. and 75% relative humidity; for Amount of titrated azithromycin: sealed
Protocol: The time-dependent stability at a high temperature of the inventive azithromycin L-malate monohydrate was measured and compared with that of the known azithromycin dihydrate.

[4] = dog, in vivo, po, 20 mg/kg
Protocol: (§1) Specifically, twelve Marshall beagle dogs (Beijing, average weight: 9.5±0.5 kg) were divided with two groups each consisting of six dogs. Each of divided dogs was fasted for 16 hours and then orally administered with a single 20 mg/kg dose of the inventive azithromycin L-malate monohydrate (test group) or azithromycin dihydrate (control group) contained in a gelatin capsule. After administration, blood samples were periodically collected, followed by separating plasma therefrom. The azithromycin samples extracted from the plasma was subjected to LC/MS/MS analysis to measure the amount of azithromycin therein and to calculate pharmacokinetic parameters.

[5] = in vivo; conditions: beagle, dog, po, 20 mg/kg
Protocol: as §1

[6] = Water-solubility test; format: physicochemical; conditions: thermodynamic from solid, 25° C., based on amount of azithromycin dissolved
Protocol: The azithromycin L-malate monohydrate of the present invention and azithromycin dihydrate were dissolved in deionized water and in phosphoric acid buffer solution (pH 7) to saturation, respectively. The water-solubility of each of the saturated solutions was analyzed by HPLC according to the procedure described in the US Pharmacopoeia, to determine the amount of azithromycin dissolved.

[7] = Non-hygroscopicity test (moisture content, Karl-Fisher titrator); format: physicochemical
Protocol: The inventive azithromycin L-malate monohydrate was continuously exposed at 25 or 40° C. and 40 to 90% relative humidity for a period of over 15 days. The moisture contents of the inventive salt measured with a Karl-Fisher titrator at storage time 0, 3, 7 and 15 days are shown in Table 5 and FIG. 5.

[8] = Pharmacokinetic test, azithromycin concentration in blood; conditions: beagle, dog, plasma, po, 20 mg/kg
Protocol: as §1

[9] = 37° C.; cited from earlier work
[10] = deionized water, water, read-out: Solubility, deionized water
[11] = phosphoric acid buffer solution, aqueous buffer, phosphoric acid buffer pH 7, read-out: Solubility, buffer solution (pH 7)

Compound: CC[C@H]1OC(=O)[C@H](C)[C@@H](O[C@H]2C[C@@](C)(OC)[C@@H](O)[C@H](C)O2)[C@H](C)[C@@H](O[C@@H]2O[C@H](C)C[C@H](N(C)C)[C@H]2O)[C@](C)(O)C[C@@H](C)CN(C)[C@H](C)[C@@H](O)[C@]1(C)O.O=C(O)CC(O)C(=O)O (racemic) [DL-malate anhydrate, Azithromycin DL-Malate Anhydrate]
Salt form (hygroscopicity) [1]: Crystalline, hygroscopic^e)
Moisture content increased to [2]: ≥ 6%

Compound: Cl [Hydrochloric acid]
Salt form (hygroscopicity) [1]: Amorphous, hygroscopic

Compound: O=C(O)[C@H](O)[C@@H](O)C(=O)O [L-Tartaric acid]
Salt form (hygroscopicity) [1]: Crystalline, hygroscopic

Compound: O=S(=O)(O)O [Sulfuric acid]
Salt form (hygroscopicity) [1]: Amorphous, hygroscopic

Compound: Cc1ccc(S(=O)(=O)O)cc1 [p-toluene sulfonic acid]
Salt form (hygroscopicity) [1]: Amorphous, hygroscopic

Compound: Azithromycin D-Malate Anhydrate
Salt form (hygroscopicity) [1]: Crystalline, hygroscopic^f)
Increase of moisture content [2]: ≥ 8%

Compound: Citric acid
Salt form (hygroscopicity) [1]: Amorphous, hygroscopic

Compound: Maleic acid
Salt form (hygroscopicity) [1]: Amorphous, hygroscopic

More lines, main results first:

Salt form (hygroscopicity) [1]: Crystalline, hygroscopic
Compound: 2-naphthalene sulfonic acid

Heat stability (in words) ([3]; 28 days): highly stable
Amount of titrated azithromycin ([3]; 7 days): 984.6 µg/mg
Amount of titrated azithromycin ([3]; 14 days): 985.1 µg/mg
Amount of titrated azithromycin ([3]; 21 days): 987.0 µg/mg
Amount of titrated azithromycin ([3]; 28 days): 985.4 µg/mg
Amount of titrated azithromycin ([3]; initial): 986.4 µg/mg
AUC0-24, T group/C group [4]: 1.34
AUC0-48, T group/C group [4]: 1.34
Cmax compared with azithromycin dihydrate (in words) [4]: about two times higher
Cmax, T group/C group [4]: 1.94
Tmax, T group/C group [4]: 0.75
Cmax [5]: 3780 ± 1380 ng/mL
Tmax [5]: 36 ± 12 min
AUC(0-t) ([5]; AUC0-24): 27600 ± 6860 ng·h/mL
AUC(0-t) ([5]; AUC0-48): 37300 ± 8830 ng·h/mL
Salt form (hygroscopicity) [1]: Crystalline, non-hygroscopic^c)
solubility [6, 10]: 393000 µg/mL
solubility [6, 11]: 392000 µg/mL
Hygroscopicity (in words) ([7]; 25 or 40° C., 40 to 90% relative humidity, 15 days): largely non-hygroscopic
Moisture content ([7]; 40% relative humidity, 25° C., 3 days): 1.78 wt %
Moisture content ([7]; 40% relative humidity, 25° C., 7 days): 1.75 wt %
Moisture content ([7]; 40% relative humidity, 25° C., 15 days): 1.73 wt %
Moisture content ([7]; 40% relative humidity, 25° C., initial): 1.75 wt %
Moisture content ([7]; 60% relative humidity, 25° C., 3 days): 1.82 wt %
Moisture content ([7]; 60% relative humidity, 25° C., 7 days): 1.80 wt %
Moisture content ([7]; 60% relative humidity, 25° C., 15 days): 1.80 wt %
Moisture content ([7]; 60% relative humidity, 25° C., initial): 1.75 wt %
Moisture content ([7]; 75% relative humidity, 40° C., 3 days): 1.80 wt %
Moisture content ([7]; 75% relative humidity, 40° C., 7 days): 1.82 wt %
Moisture content ([7]; 75% relative humidity, 40° C., 15 days): 1.85 wt %
Moisture content ([7]; 75% relative humidity, 40° C., initial): 1.75 wt %
Moisture content ([7]; 90% relative humidity, 40° C., 3 days): 1.87 wt %
Moisture content ([7]; 90% relative humidity, 40° C., 7 days): 1.85 wt %
Moisture content ([7]; 90% relative humidity, 40° C., 15 days): 1.85 wt %
Moisture content ([7]; 90% relative humidity, 40° C., initial): 1.75 wt %
Compound: CC[C@H]1OC(=O)[C@H](C)[C@@H](O[C@H]2C[C@@](C)(OC)[C@@H](O)[C@H](C)O2)[C@H](C)[C@@H](O[C@@H]2O[C@H](C)C[C@H](N(C)C)[C@H]2O)[C@](C)(O)C[C@@H](C)CN(C)[C@H](C)[C@@H](O)[C@]1(C)O.O=C(O)C[C@H](O)C(=O)O [Azithromycin L-malate monohydrate, azithromycin L-malate monohydrate]

Heat stability (in words) ([3]; 28 days): significant degradation
Amount of titrated azithromycin ([3]; 7 days): 974.6 µg/mg
Amount of titrated azithromycin ([3]; 14 days): 975.3 µg/mg
Amount of titrated azithromycin ([3]; 21 days): 973.2 µg/mg
Amount of titrated azithromycin ([3]; 28 days): 971.6 µg/mg
Amount of titrated azithromycin ([3]; initial): 976.5 µg/mg
Tmax [8]: 48 ± 18 min
Cmax [5]: 1950 ± 710 ng/mL
AUC(0-t) ([5]; AUC0-24): 20600 ± 6640 ng·h/mL
AUC(0-t) ([5]; AUC0-48): 27900 ± 9710 ng·h/mL
solubility [6, 10]: 100 µg/mL
solubility [6, 11]: 5100 µg/mL
Compound: CC[C@H]1OC(=O)[C@H](C)[C@@H](O[C@H]2C[C@@](C)(OC)[C@@H](O)[C@H](C)O2)[C@H](C)[C@@H](O[C@@H]2O[C@H](C)C[C@H](N(C)C)[C@H]2O)[C@](C)(O)C[C@@H](C)CN(C)[C@H](C)[C@@H](O)[C@]1(C)O [Azithromycin dihydrate, 9-deoxo-9a-aza-9a-methyl-9a-homoerythromycin A, reference compound]
Water-solubility [9]: 1100 µg/mL

Salt form (hygroscopicity) [1]: Amorphous, hygroscopic
Compound: Br [Hydrobromic acid]

Salt form (hygroscopicity) [1]: Crystalline, hygroscopic^d)
Increase of moisture content [2]: about 2.0%
Compound: CCC1OC(=O)C(C)C(OC2CC(C)(OC)C(O)C(C)O2)C(C)C(OC2OC(C)CC(N(C)C)C2O)C(C)(O)CC(C)CN(C)C(C)C(O)C1(C)O.O=C(O)CC(O)C(=O)O [L-malate anhydrate, Azithromycin L-Malate Anhydrate]

Salt form (hygroscopicity) [1]: Crystalline, hygroscopic
Compound: Fumaric acid
